The record followed here is PMC10974930, “Synthesis and Antioxidant Activities of Novel Pyrimidine Acrylamides as Inhibitors of Lipoxygenase: Molecular Modeling and In Silico Physicochemical Studies” (Molecules, 2024).

The IC50 is the concentration at which inhibition is half-maximal.

This experiment deals with T1, soybean lipoxygenase (Glycine max, UniProt P08170).
T1 construct: gene LOX1.1
T1 sequence (P08170 1-839): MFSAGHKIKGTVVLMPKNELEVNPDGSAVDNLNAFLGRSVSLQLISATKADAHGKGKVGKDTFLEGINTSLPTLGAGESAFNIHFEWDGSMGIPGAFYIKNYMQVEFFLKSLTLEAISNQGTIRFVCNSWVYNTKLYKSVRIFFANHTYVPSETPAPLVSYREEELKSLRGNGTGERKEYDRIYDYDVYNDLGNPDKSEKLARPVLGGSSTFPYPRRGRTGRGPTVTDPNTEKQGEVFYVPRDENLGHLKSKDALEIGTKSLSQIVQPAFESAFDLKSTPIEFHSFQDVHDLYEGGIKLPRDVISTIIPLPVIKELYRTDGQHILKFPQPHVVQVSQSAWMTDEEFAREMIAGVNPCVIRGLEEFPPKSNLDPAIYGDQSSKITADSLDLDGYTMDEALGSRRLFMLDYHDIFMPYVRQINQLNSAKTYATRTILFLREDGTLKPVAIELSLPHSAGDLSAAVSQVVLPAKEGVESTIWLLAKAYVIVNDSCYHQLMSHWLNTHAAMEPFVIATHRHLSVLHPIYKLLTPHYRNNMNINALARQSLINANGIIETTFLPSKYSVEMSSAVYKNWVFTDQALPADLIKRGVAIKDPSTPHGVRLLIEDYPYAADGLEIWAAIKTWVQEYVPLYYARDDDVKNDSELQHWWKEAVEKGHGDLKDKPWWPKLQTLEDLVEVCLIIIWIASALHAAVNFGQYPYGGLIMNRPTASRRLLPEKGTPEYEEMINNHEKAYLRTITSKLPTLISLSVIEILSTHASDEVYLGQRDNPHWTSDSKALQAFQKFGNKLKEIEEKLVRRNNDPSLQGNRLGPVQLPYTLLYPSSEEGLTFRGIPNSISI
As to the kind of experiment: UV assay at […] nm of sodium linoleate oxidation by soybean lipoxygenase (Sigma). It is filed as biochemical. To be noted: read-out: % Inhibition of LOX 100 μM or IC50 (μM) *.

As to `O=Nc1c(NC(=O)/C=C/c2cccc3ccccc23)[nH]c(N2CCCCC2)nc1=O` [compound 9, (E)-3-(naphthalen-1-yl)-N-(5-nitroso-6-oxo-2-(piperidin-1-yl)-3,6-dihydropyrimidin-4-yl)acrylamide], the IC50 is 1.1 µM.
Under `O=Nc1c(NC(=O)/C=C/c2cccs2)[nH]c(N2CCCCC2)nc1=O` [compound 5, (E)-N-(5-nitroso-6-oxo-2-(piperidin-1-yl)-3,6-dihydropyrimidin-4-yl)-3-(thiophen-2-yl)acrylamide] stands 10.7 µM.
